Assay results published in patent US20160009693A1, “HERBICIDAL COMPOUNDS” (SYNGENTA LIMITED, priority 2013, published 2016).

Assays:
Type in all cases: in vivo
Details in all cases: applied at 1000 g/h, evaluated after 13 days
[1] = system: Alopecurus myosuroides (ALOMY); assay: Herbicidal glasshouse test, pre-emergence, ALOMY
Setaria faberi (SETFA) [2] = assay: Herbicidal glasshouse test, pre-emergence, SETFA
[3] = system: Echinochloa crus-galli (ECHCG); assay: Herbicidal glasshouse test, pre-emergence, ECHCG
Outline: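 Echinochloa crus-galli seeds were sown in standard soil in pots and grown for one day in a glasshouse at 24/16° C. day/night, 14 hours light and 65% humidity. Pre-emergence spraying used an aqueous solution of the active ingredient in acetone/water (50:50) with 0.5% Tween 20. Damage was scored after 13 days on a five point scale.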

Solanum nigrum (SOLNI) [4] = assay: Herbicidal glasshouse test, pre-emergence, SOLNI
Outline: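 Seeds of Solanum nigrum were sown in pots of standard soil and kept one day in a glasshouse at 24/16° C. day/night, 14 hours light and 65% humidity. For the pre-emergence treatment they were then sprayed with an aqueous solution of the active ingredient formulated in acetone/water (50:50) containing 0.5% Tween 20. Plant damage was rated after 13 days.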

[5] = system: Amaranthus retoflexus (AMARE); assay: Herbicidal glasshouse test, pre-emergence, AMARE
Outline: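 Amaranthus retoflexus seeds were sown in pots of standard soil and kept one day in a glasshouse at 24/16° C. (day/night), 14 hours light and 65% humidity. They were then sprayed pre-emergence with the active ingredient in acetone/water (50:50) containing 0.5% Tween 20. Plants grew under the same conditions, watered twice daily, and percentage damage was scored after 13 days.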

[6] = system: Ipomoea hederacea (IPOHE); assay: Herbicidal glasshouse test, pre-emergence, IPOHE
[7] = system: Alopecurus myosuroides (ALOMY); assay: Herbicidal glasshouse test, post-emergence, ALOMY
Setaria faberi (SETFA) [8] = assay: Herbicidal glasshouse test, post-emergence, SETFA
Outline: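 Setaria faberi seeds were sown in standard soil in pots and grown for 8 days in a glasshouse at 24/16° C. day/night, 14 hours light and 65% humidity. The seedlings were then sprayed post-emergence with the active ingredient in acetone/water (50:50) containing 0.5% Tween 20. Afterwards they were kept under the same conditions, watered twice daily, and scored for percentage damage on a five point scale.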

[9] = system: Echinochloa crus-galli (ECHCG); assay: Herbicidal glasshouse test, post-emergence, ECHCG
Outline: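 Echinochloa crus-galli (ECHCG) seeds were sown in standard soil in pots and grown for 8 days in a glasshouse at 24/16° C. day/night, 14 hours light and 65% humidity. The young plants were then sprayed post-emergence with the active ingredient in acetone / water (50:50) containing 0.5% Tween 20. Damage was scored after 13 days.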

Solanum nigrum (SOLNI) [10] = assay: Herbicidal glasshouse test, post-emergence, SOLNI
[11] = system: Amaranthus retoflexus (AMARE); assay: Herbicidal glasshouse test, post-emergence, AMARE
Outline: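 Amaranthus retoflexus (AMARE) seeds were sown in pots of standard soil and grown in a glasshouse at 24/16° C. day/night, 14 hours light and 65% humidity for 8 days. The plants were then sprayed post-emergence with an aqueous solution of the active ingredient in acetone/water (50:50) with 0.5% Tween 20. Damage was scored after 13 days.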

[12] = system: Ipomoea hederacea (IPOHE); assay: Herbicidal glasshouse test, post-emergence, IPOHE

Compound	PRE Application ALOMY, percentage damage (five point scale) [1]	PRE Application SETFA, percentage damage (five point scale) (Setaria faberi (SETFA) [2])	PRE Application ECHCG, percentage damage (five point scale) [3]	PRE Application SOLNI, percentage damage (five point scale) (Solanum nigrum (SOLNI) [4])	PRE Application AMARE, percentage damage (five point scale) [5]	PRE Application IPOHE, percentage damage (five point scale) [6]	POST Application ALOMY, percentage damage (five point scale) [7]	POST Application SETFA, percentage damage (five point scale) (Setaria faberi (SETFA) [8])	POST Application ECHCG, percentage damage (five point scale) [9]	POST Application SOLNI, percentage damage (five point scale) (Solanum nigrum (SOLNI) [10])	POST Application AMARE, percentage damage (five point scale) [11]	POST Application IPOHE, percentage damage (five point scale) [12]
Cn1cnnc1NC(=O)c1nn(C)c(=O)n(-c2cccc(F)c2F)c1=O [Compound 6.002]	2 (2=20-39%)	2 (2=20-39%)	2 (2=20-39%)	5 (5=80-100%)	5 (5=80-100%)	5 (5=80-100%)	4 (4=60-79%)	4 (4=60-79%)	4 (4=60-79%)	5 (5=80-100%)	5 (5=80-100%)	5 (5=80-100%)
Cn1nnnc1NC(=O)c1nn(C)c(=O)n(Cc2cccc(C#N)c2)c1=O [Compound 1.054]	5 (5=80-100%)	4 (4=60-79%)	5 (5=80-100%)	5 (5=80-100%)	5 (5=80-100%)	5 (5=80-100%)	5 (5=80-100%)	4 (4=60-79%)	5 (5=80-100%)	5 (5=80-100%)	5 (5=80-100%)	5 (5=80-100%)
COCCn1c(=O)c(C(=O)Nc2nnnn2C)nn(C)c1=O [Compound 1.088]	5 (5=80-100%)	5 (5=80-100%)	5 (5=80-100%)	5 (5=80-100%)	5 (5=80-100%)	5 (5=80-100%)	5 (5=80-100%)	5 (5=80-100%)	5 (5=80-100%)	5 (5=80-100%)	5 (5=80-100%)	5 (5=80-100%)
CCCCn1c(=O)c(C(=O)Nc2ncnn2C)nn(C)c1=O [Compound 5.003]	1 (1=0-19%)	4 (4=60-79%)	1 (1=0-19%)	5 (5=80-100%)	5 (5=80-100%)	4 (4=60-79%)	3 (3=40-59%)	4 (4=60-79%)	4 (4=60-79%)	5 (5=80-100%)	5 (5=80-100%)	4 (4=60-79%)
Cn1nnnc1NC(=O)c1nn(C)c(=O)n(-c2ccccc2)c1=O [Compound 1.002]	5 (5=80-100%)	5 (5=80-100%)	5 (5=80-100%)	5 (5=80-100%)	5 (5=80-100%)	5 (5=80-100%)	5 (5=80-100%)	5 (5=80-100%)	5 (5=80-100%)	5 (5=80-100%)	5 (5=80-100%)	5 (5=80-100%)
Cn1nnnc1NC(=O)c1nn(C)c(=O)n(Cc2ccc(C(F)F)cc2)c1=O [Compound 1.086]	5 (5=80-100%)	2 (2=20-39%)	5 (5=80-100%)	5 (5=80-100%)	5 (5=80-100%)	5 (5=80-100%)	5 (5=80-100%)	2 (2=20-39%)	5 (5=80-100%)	5 (5=80-100%)	5 (5=80-100%)	5 (5=80-100%)
Cn1nnnc1NC(=O)c1nn(C)c(=O)n(Cc2ccc(F)cc2Cl)c1=O [Compound 1.069]	5 (5=80-100%)	2 (2=20-39%)	5 (5=80-100%)	5 (5=80-100%)	5 (5=80-100%)	5 (5=80-100%)	5 (5=80-100%)	2 (2=20-39%)	5 (5=80-100%)	5 (5=80-100%)	5 (5=80-100%)	5 (5=80-100%)
COc1ccc([N+](=O)[O-])cc1Cn1c(=O)c(C(=O)Nc2nnnn2C)nn(C)c1=O [Compound 1.081]	5 (5=80-100%)	2 (2=20-39%)	5 (5=80-100%)	5 (5=80-100%)	5 (5=80-100%)	5 (5=80-100%)	5 (5=80-100%)	4 (4=60-79%)	4 (4=60-79%)	5 (5=80-100%)	5 (5=80-100%)	5 (5=80-100%)
Cc1ccc(Cn2c(=O)c(C(=O)Nc3nnnn3C)nn(C)c2=O)cc1 [Compound 1.051]	5 (5=80-100%)	1 (1=0-19%)	5 (5=80-100%)	5 (5=80-100%)	5 (5=80-100%)	5 (5=80-100%)	5 (5=80-100%)	2 (2=20-39%)	5 (5=80-100%)	5 (5=80-100%)	5 (5=80-100%)	5 (5=80-100%)
C=CCn1nc(C(=O)Nc2nnnn2C)c(=O)n(Cc2cccc(F)c2)c1=O [Compound 1.014]	3 (3=40-59%)	1 (1=0-19%)	5 (5=80-100%)	5 (5=80-100%)	5 (5=80-100%)	5 (5=80-100%)	2 (2=20-39%)	5 (5=80-100%)	4 (4=60-79%)	5 (5=80-100%)	5 (5=80-100%)	5 (5=80-100%)
